This is an account of results in patent US12459972B2, “Protease-activated contrast agents for in vivo imaging” (THE BOARD OF TRUSTEES OF THE LELAND STANFORD JUNIOR …, priority 2015, dated 2025).

One test has as its target recombinant cathepsin L (Homo sapiens, UniProt P07711). As to the kind of experiment: Enzyme kinetics / turnover of quenched substrates with recombinant cathepsin L. It counts as biochemical. To be noted: for Km / kcat: recombinant cathepsin L, 5 nM enzyme; for Km: 50 mM citrate buffer pH 5.5, 37° C., average of three replicates ± standard error; for kcat: citrate buffer pH 5.5, 37° C.; for increase in catalytic efficiency, spacer n=6 relative to n=2 analog: Cat L, 6CQ vs 2CQ, 6QC vs 2QC. On the procedure:
(§1) The activity and selectivity of all 6 substrates were determined by monitoring the turnover curves of each internally quenched probe in the presence of various recombinant cysteine proteases, specifically cathepsins L, S, K, B, and V. Equal concentration (5 nM) of each enzyme was incubated with the different probes in 50 mM citrate buffer (pH=5.5, 5 mM DTT, 0.1% triton X, 0.5% CHAPS) at 37° C. The exact concentration of the various cathepsins used were confirmed by active site titration (Boucher et al. (2014) Methods Mol. Biol. 1133:3-39) using the covalent cysteine protease inhibitor ZFK-PMK and the commercial substrates Z-VVR-AMC for cathepsins S, L, B, and V, or Z-KR-AMC for cathepsin K. The rate of increase in Cy5 fluorescence (which is indicative of probe cleavage by cathepsins) was measured for each of the probes.

A further test has as its target recombinant cathepsin V (Homo sapiens, UniProt O60911). Nature of the test: Enzyme kinetics / turnover of quenched substrates with recombinant cathepsin V. The format is biochemical. To be noted: for Km / kcat: recombinant cathepsin V, 5 nM enzyme; for Km: 50 mM citrate buffer pH 5.5, 37° C., average of three replicates ± standard error; for kcat: citrate buffer pH 5.5, 37° C.; for increase in efficiency, spacer n=6 relative to n=2 analog: Cat V, nCQ and nQC series respectively. On the procedure: as §1

The subject of test [1] is 4T1 tumors (tumor associated cysteine cathepsins). Nature of the test: Non-invasive optical imaging with Cy5 substrates, syngeneic orthotopic 4T1 mouse model of breast cancer. The format is in vivo. To be noted: for Cy5 fluorescence in frozen tumor sections: 24-hour endpoint, histology; for overall absolute fluorescence intensity in the tumors compared to non-lysosomotropic substrates 2CQ and 6CQ: intravenous, non-invasive imaging. On the procedure: In this model 4T1 cells are inoculated into the left number 1 and 10 mammary fat pad of mice to generate tumors. In order to determine the impact of the LLE, imaging signals of lysosomotropic probes 2QC (compound 5) and 6QC (compound 7) were directly compared to those of the non-lysosomotropic analogues 2CQ (compound 2) and 6CQ (compound 4). Substrates were administered to tumor-bearing mice intravenously, and mice were imaged at various time points following the administration. […] The intensity of the fluorescent signal reached a maximum at 4 hour after administration, followed by a decrease in the signal intensity (FIG. 4B). […] Furthermore, the intensity of the signal remained constant over a period of 24 hours in the tumors of mice administered with the LLE substrates, whereas the signals from the non-LLE substrates were almost completely cleared after 24 hours (FIGS. 4A and 4B). A similar trend was observed by ex vivo imaging of tumors excised from mice that had been euthanized after 4 hours and after 24 hours (FIG. 4C).
In order to determine which populations of cells are responsible for activating the quenched substrate probes in vivo, immunofluorescence staining on frozen sliced sections of tumors isolated from mice injected with each substrate was performed using a macrophage-selective marker CD68. The Cy5 signal of the substrate co-localized to only CD68-positive cells (macrophages), with no signals observed in the 4T1 tumor cell (FIG. 5A). Moreover, Cy5 fluorescence was only observed in tissues from mice that received nQC substrates and not in tissues from mice treated with nCQ substrates (FIG. 5B).

For test [2] the test system is unchanged. As to the kind of experiment: Non-invasive imaging with NIR probes in 4T1 breast cancer model, IVIS-spectrum. To be noted: 24 hour time course. It counts as in vivo, mouse. An excerpt:
The optimized substrate probes described above have therefore been tested in a clinically relevant model systems of FGS. […] In these compounds, the Cy5 chromophore was strategically substituted with a similar molecular weight near infrared (NIR) DyLight 780-B1 fluorophore. The compound with a linker having n=6 was chosen based on the optimal turnover numbers by cathepsins in vitro. The QSY21-sulfo quencher was also substituted with IRDye QC-1, which is a dark NIR quencher (FIG. 6A). In addition to being detectable on the camera system of the da Vinci robot, the emission wavelength of the NIR dye (absorption/emission maxima of 783/799 nm) falls within a window with low overall background and will therefore enhance tissue penetration and improve signal to background ratio during imaging. Richards-Kortum and Sevick-Muraca (1996) Annu. Rev. Phys. Chem. 47:555-606. The NIR probes were first analyzed as contrast agents in the 4T1 breast cancer model described above, using the IVIS-spectrum imaging system. Following systemic administration of the contrast agents, mice were imaged non-invasively every hour for 4 hours, and then at 6, 8, 12 and 24 hours post injection of the substrate. […] The intensity of the fluorescence signal in the tumors increased rapidly in mice injected with both types of probes, and it eventually peaked between 4 to 6 hours. […]

SMILES strings stand for the structures.

The term Km denotes the concentration of substrate that gives half-maximal velocity. The term kcat denotes the maximal rate divided by the concentration of active sites.

Sequence of recombinant cathepsin V (O60911 114-334): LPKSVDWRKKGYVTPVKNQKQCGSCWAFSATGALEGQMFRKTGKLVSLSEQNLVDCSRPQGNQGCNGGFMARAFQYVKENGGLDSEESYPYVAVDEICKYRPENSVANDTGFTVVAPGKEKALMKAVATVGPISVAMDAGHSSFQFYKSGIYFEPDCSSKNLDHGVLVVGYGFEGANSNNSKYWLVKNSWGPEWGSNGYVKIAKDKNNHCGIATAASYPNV
Sequence of recombinant cathepsin L (P07711 114-333, species assumed): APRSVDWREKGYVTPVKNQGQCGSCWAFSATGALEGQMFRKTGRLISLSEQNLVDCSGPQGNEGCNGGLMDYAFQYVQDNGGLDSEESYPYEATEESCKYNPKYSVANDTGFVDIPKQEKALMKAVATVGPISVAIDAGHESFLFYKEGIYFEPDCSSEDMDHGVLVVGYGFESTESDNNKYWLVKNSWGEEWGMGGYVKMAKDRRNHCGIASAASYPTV

For `CC[N+]1=C(C=CC=CC=C2N(CCCCCC(=O)NCCCC[C@H](NC(=O)[C@H](Cc3ccccc3)NC(=O)OCc3ccccc3)C(=O)NCCNC(=O)C3CCN(S(=O)(=O)c4ccccc4-c4c5ccc(=[N+]6CCc7cc(S(=O)(=O)O)ccc76)cc-5oc5cc(N6CCc7cc(S(=O)(=O)O)ccc76)ccc45)CC3)c3ccc(S(=O)(=O)O)cc3C2(C)C)C(C)(C)c2cc(S(=O)(=O)O)ccc21` [2CQ], at recombinant cathepsin L, the Km worked out at 6.4 ± 0.8 µM and the kcat came to 0.141 s⁻¹. Moreover, at recombinant cathepsin V, the Km worked out at 5 ± 0.4 µM and the kcat stood at 0.014 s⁻¹.

Regarding `CC[N+]1=C(C=CC=CC=C2N(CCCCCC(=O)NCCNC(=O)[C@H](CCCCNC(=O)C3CCN(S(=O)(=O)c4ccccc4-c4c5ccc(=[N+]6CCc7cc(S(=O)(=O)O)ccc76)cc-5oc5cc(N6CCc7cc(S(=O)(=O)O)ccc76)ccc45)CC3)NC(=O)[C@H](Cc3ccccc3)NC(=O)OCc3ccccc3)c3ccc(S(=O)(=O)O)cc3C2(C)C)C(C)(C)c2cc(S(=O)(=O)O)ccc21` [2QC], on recombinant cathepsin L, the Michaelis-Menten constant (Km) was 6.5 ± 1.5 µM and the kcat came out at 0.095 s⁻¹. Further, at recombinant cathepsin V, the Km came to 0.9 ± 0.1 µM and the kcat worked out at 0.008 s⁻¹. Moreover, in test [1], the “Cy5 fluorescence in frozen tumor sections” value is reported as “observed”; the “overall absolute fluorescence intensity in the tumors compared to non-lysosomotropic substrates 2CQ and 6CQ” value was “higher and brighter”.

Take `CC[N+]1=C(C=CC=CC=C2N(CCCCCC(=O)NCCCC[C@H](NC(=O)[C@H](Cc3ccccc3)NC(=O)OCc3ccccc3)C(=O)NCCCCNC(=O)C3CCN(S(=O)(=O)c4ccccc4-c4c5ccc(=[N+]6CCc7cc(S(=O)(=O)O)ccc76)cc-5oc5cc(N6CCc7cc(S(=O)(=O)O)ccc76)ccc45)CC3)c3ccc(S(=O)(=O)O)cc3C2(C)C)C(C)(C)c2cc(S(=O)(=O)O)ccc21` [4CQ]: on recombinant cathepsin L, the Michaelis constant (Km) was 4.6 ± 0.7 µM and the kcat was 0.283 s⁻¹. Moreover, at recombinant cathepsin V, the Km was determined as 3.4 ± 0.3 µM and the kcat was 0.073 s⁻¹.

`CC[N+]1=C(C=CC=CC=C2N(CCCCCC(=O)NCCCCNC(=O)[C@H](CCCCNC(=O)C3CCN(S(=O)(=O)c4ccccc4-c4c5ccc(=[N+]6CCc7cc(S(=O)(=O)O)ccc76)cc-5oc5cc(N6CCc7cc(S(=O)(=O)O)ccc76)ccc45)CC3)NC(=O)[C@H](Cc3ccccc3)NC(=O)OCc3ccccc3)c3ccc(S(=O)(=O)O)cc3C2(C)C)C(C)(C)c2cc(S(=O)(=O)O)ccc21` [4QC]: at recombinant cathepsin L, the Km came out at 8.6 ± 1.3 µM and the kcat amounted to 0.396 s⁻¹. In addition, on recombinant cathepsin V, the Km came out at 4.8 ± 0.2 µM and the kcat was 0.188 s⁻¹.

In the case of `CC[N+]1=C(C=CC=CC=C2N(CCCCCC(=O)NCCCC[C@H](NC(=O)[C@H](Cc3ccccc3)NC(=O)OCc3ccccc3)C(=O)NCCCCCCNC(=O)C3CCN(S(=O)(=O)c4ccccc4-c4c5ccc(=[N+]6CCc7cc(S(=O)(=O)O)ccc76)cc-5oc5cc(N6CCc7cc(S(=O)(=O)O)ccc76)ccc45)CC3)c3ccc(S(=O)(=O)O)cc3C2(C)C)C(C)(C)c2cc(S(=O)(=O)O)ccc21` [6CQ], on recombinant cathepsin L, the “increase in catalytic efficiency, spacer n=6 relative to n=2 analog” value is 4 fold; the Km was determined as 5.4 ± 0.5 µM; the kcat stood at 0.487 s⁻¹. Moreover, on recombinant cathepsin V, the “increase in efficiency, spacer n=6 relative to n=2 analog” value is reported as 8 fold; the Km was 6.8 ± 0.4 µM; the kcat was determined as 0.164 s⁻¹.

As for `CCN(CC)c1ccc2c(C(C)(C)C)cc(C=CC=CC=C3N(CCCCCC(=O)NCCCCCCNC(=O)[C@H](CCCCNC(=O)CCCCCN4C(=CC=C5CCCC(C=CC6=[N+](CCCS(=O)(=O)O)c7ccc(N(CCCS(=O)(=O)O)CCCS(=O)(=O)O)cc7C6(C)C)=C5Cl)C(C)(C)c5c4ccc4cc(S(=O)(=O)O)ccc54)NC(=O)[C@H](Cc4ccccc4)NC(=O)OCc4ccccc4)c4ccc(S(=O)(=O)O)cc4C3(C)C)[o+]c2c1` [6QCNIR], the “clearance rate and signal in tumors relative to the non-LLE substrate” value in test [2] was “slower clearance rate and brighter signal”.

Consider `CC[N+]1=C(C=CC=CC=C2N(CCCCCC(=O)NCCCCCCNC(=O)[C@H](CCCCNC(=O)C3CCN(S(=O)(=O)c4ccccc4-c4c5ccc(=[N+]6CCc7cc(S(=O)(=O)O)ccc76)cc-5oc5cc(N6CCc7cc(S(=O)(=O)O)ccc76)ccc45)CC3)NC(=O)[C@H](Cc3ccccc3)NC(=O)OCc3ccccc3)c3ccc(S(=O)(=O)O)cc3C2(C)C)C(C)(C)c2cc(S(=O)(=O)O)ccc21` [6QC], for which, at recombinant cathepsin L, the “increase in catalytic efficiency, spacer n=6 relative to n=2 analog” value was found to be 6 fold; the Km was found to be 5.3 ± 0.8 µM; the turnover number (kcat) came to 0.458 s⁻¹. For the same compound, at recombinant cathepsin V, the “increase in efficiency, spacer n=6 relative to n=2 analog” value was 4 fold; the Michaelis-Menten constant (Km) came out at 4.4 ± 0.2 µM; the kcat came out at 0.150 s⁻¹. Moreover, in test [1], the “Cy5 fluorescence in frozen tumor sections” value is listed as “observed”; the “overall absolute fluorescence intensity in the tumors compared to non-lysosomotropic substrates 2CQ and 6CQ” value was “higher and brighter”.
